Assay [1] concerns lung adenocarcinoma cell line (A549). The assay is described as follows: In vitro anti-tumor activity test (CCK8), lung adenocarcinoma cell line. It counts as cell-based. The settings on record: A549 cells, 48 h incubation, CCK8, absorbance 450 nm. The protocol: (§1) The obtained Artemisia Rupestris complex salts were subjected to an in vitro anti-tumor activity test, in which the in vitro inhibitory activity of the Artemisia Rupestris complex salts on the lung adenocarcinoma cell line (A549) and cervical carcinoma cell line (Hela) was mainly researched. The specific test process was illustrated by the process for testing the lung adenocarcinoma cell line (A549):
(§2) The prepared Artemisia Rupestris complex salt was weighed, added into a 5 mL plastic centrifuge tube and diluted to
(§3) 1 mL with DMSO, to obtain a test sample at an initial concentration. Then the test sample at an initial concentration was serially diluted with DMSO to obtain test samples in 5 different concentration gradients in sequence, which were stored in a refrigerator at 4° C. for later use.
(§4) The lung adenocarcinoma cell line (A549) was incubated in an incubator for 24 h under the conditions of 37° C., 5% CO2, and saturated humidity. When the cells were in logarithmic growth phase, the culture supernatant was discarded, and the residue was digested with 0.25% trypsin-EDTA solution. Then, the digestion was terminated with high glucose medium. The cells were seeded in a 96-well plate with a cell density of 5000 cells/well. The 96-well plate was incubated in an incubator for 24 h. Then the cell culture supernatant in the 96-well plate was discarded. 100 μL of high glucose medium was added to the 96-well plate, and test samples at different concentrations were added to wells at 1 μL/well (5 duplicate wells were set for each concentration). After the plate was incubated in an incubator for 48 h under the conditions of 37° C., saturated humidity and 5% CO2, 10 μL of CCK8 was added to each well, and the plate was then incubated in the incubator at 37° C. for 1-4 h. The absorbance of each well at 450 nm was measured on a multifunctional microplate reader. Inhibition rate %=[(ODcontrol cells−ODtreatment cells)/(ODcontrol cells−ODblank)]×100. Negative control was a mixed solution of Vhigh glucose medium and VDMSO at a ratio of 10:1.

The test system of assay [2] is cervical carcinoma cell line (Hela). The assay is described as follows: In vitro anti-tumor activity test (CCK8), cervical carcinoma cell line. The assay is classed as cell-based. The settings on record: Hela cells, 48 h incubation, CCK8, absorbance 450 nm. As for the experimental part:
as §1, §2, §3, §4
The process for testing the inhibition of those compounds on the cervical cancer cell line (Hela) was the same as above.

On to `O=C1CCC[C@@H]2[C@H]3CCCN4CCC[C@@H](CN12)[C@@H]34` [Matrine], for which the IC50 in assay [1] (Homo sapiens) amounted to 6370 µM; in assay [2] (Homo sapiens) it was 774 µM.

Turning to `O=C1CCC[C@@H]2[C@H]3CCC[N+]4([O-])CCC[C@@H](CN12)[C@@H]34` (stereo partly shown) [Oxymatrine], half-maximal inhibition in assay [2] (Homo sapiens) (IC50) was put at 0.95 µM.

As for `C=C(C(=O)O)[C@H]1CC[C@H](C)[C@@H]2CC(=O)C(C)=C2C1` [Rupestonic acid], the “IC50 (μM) A549” value in assay [1] is reported as “Inactive”. Also, in assay [2], the “IC50 (μM) Hela” value is listed as “Inactive”.

In the case of `O=C1C=CC[C@@H]2[C@H]3CCCN4CCC[C@@H](CN12)[C@@H]34` [Sophocarpine], the IC50 in assay [1] (Homo sapiens) turned out to be 241 µM; in assay [2] (Homo sapiens), 122 µM.

For the molecule `O=C1CCC[C@@H]2[C@H]3CCCN4CCC[C@H](CN12)[C@@H]34` [Sophoridine], the concentration for half-maximal inhibition (IC50) was determined as 16000 µM in assay [1] (Homo sapiens) and 1490 µM in assay [2] (Homo sapiens).

On to “complex salt of rupestonic acid and matrine”, for which the IC50 in assay [1] is 1.49 µM; in assay [2], 11.8 µM.

On to “complex salt of rupestonic acid and oxymatrine”, for which the IC50 in assay [2] was found to be 25.2 µM.

Take “complex salt of rupestonic acid and sophocarpine”: the IC50 amounted to 714 µM in assay [1] and 115 µM in assay [2].

As to “complex salt of rupestonic acid and sophoridine”, the IC50 in assay [1] worked out at 61.3 µM; in assay [2] it was 17.9 µM.

The term IC50 denotes the point on the concentration scale where inhibition reaches its midpoint.

Values taken from patent US12024489B2, “Complex salt of rupestonic acid and alkaloid, preparation method therefor and use thereof” (XIAMEN INSTITUTE OF RARE EARTH MATERIALS, priority 2022, dated 2024).
